# Measured values published in US20250263395A1, “COMPOUNDS THAT MEDIATE PROTEIN DEGRADATION AND METHODS OF USE THEREOF” (Monte Rosa Therapeutics AG, priority 2022, published 2025).
# Experiments:
# CRBN-DDB1 = CRBN-DDB1 (Homo sapiens (Human), UniProt Q96SW2); assay: CRBN HTRF assay (Cy5-Thalidomide probe displacement); format: binding; conditions: CRBN-DDB1 2.5 nM, Cy5-Thalidomide 100 nM, 30 min; Ki from geometric mean IC50 by Cheng-Prusoff
# Summary of the method: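 HTRF displacement of Cy5-thalidomide probe (100 nM) from His-CRBN-DDB1 (2.5 nM) with anti-His terbium cryptate, in HEPES/NaCl/TCEP/EDTA/Tween20 buffer. 10-point 1:3 compound series, 30 min at ambient temperature; signal normalised to DMSO and lenalidomide controls, IC50 fitted and Ki derived by Cheng-Prusoff.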
# CDK2 = CDK2 (Homo sapiens (Human), UniProt P24941); assay: CDK2 NanoBiT assay (HiBiT-tagged CDK2 degradation); format: cell-based; conditions: C-terminal HiBiT tag on CDK2, LgBiT, 24 hours
# Summary of the method: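 HEK293 line with CRISPR knock-in C-terminal HiBiT-tagged CDK2 and stable LgBiT, preincubated 16 h with live-cell substrate, then compound-treated 24 h at 37° C, 5% CO2 (30 μM stock). Luminescence normalized to plate negative and positive controls; EC50 from 3-parameter logistic fit, Hill slope 1.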
# CRBN-DDB1, sequence (Q96SW2 whole entry): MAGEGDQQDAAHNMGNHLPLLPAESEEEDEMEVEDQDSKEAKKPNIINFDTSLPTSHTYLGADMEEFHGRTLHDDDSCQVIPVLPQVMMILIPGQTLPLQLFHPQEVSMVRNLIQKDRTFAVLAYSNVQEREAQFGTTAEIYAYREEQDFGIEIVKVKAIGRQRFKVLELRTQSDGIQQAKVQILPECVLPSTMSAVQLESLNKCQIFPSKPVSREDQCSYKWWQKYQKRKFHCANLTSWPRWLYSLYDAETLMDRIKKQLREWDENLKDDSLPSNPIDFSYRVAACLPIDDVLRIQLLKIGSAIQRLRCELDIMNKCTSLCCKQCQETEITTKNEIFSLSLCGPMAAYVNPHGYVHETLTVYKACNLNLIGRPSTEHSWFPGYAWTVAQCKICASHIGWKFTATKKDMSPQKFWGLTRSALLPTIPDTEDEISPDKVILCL
# CRBN-DDB1, sequence (Q16531 whole entry partner): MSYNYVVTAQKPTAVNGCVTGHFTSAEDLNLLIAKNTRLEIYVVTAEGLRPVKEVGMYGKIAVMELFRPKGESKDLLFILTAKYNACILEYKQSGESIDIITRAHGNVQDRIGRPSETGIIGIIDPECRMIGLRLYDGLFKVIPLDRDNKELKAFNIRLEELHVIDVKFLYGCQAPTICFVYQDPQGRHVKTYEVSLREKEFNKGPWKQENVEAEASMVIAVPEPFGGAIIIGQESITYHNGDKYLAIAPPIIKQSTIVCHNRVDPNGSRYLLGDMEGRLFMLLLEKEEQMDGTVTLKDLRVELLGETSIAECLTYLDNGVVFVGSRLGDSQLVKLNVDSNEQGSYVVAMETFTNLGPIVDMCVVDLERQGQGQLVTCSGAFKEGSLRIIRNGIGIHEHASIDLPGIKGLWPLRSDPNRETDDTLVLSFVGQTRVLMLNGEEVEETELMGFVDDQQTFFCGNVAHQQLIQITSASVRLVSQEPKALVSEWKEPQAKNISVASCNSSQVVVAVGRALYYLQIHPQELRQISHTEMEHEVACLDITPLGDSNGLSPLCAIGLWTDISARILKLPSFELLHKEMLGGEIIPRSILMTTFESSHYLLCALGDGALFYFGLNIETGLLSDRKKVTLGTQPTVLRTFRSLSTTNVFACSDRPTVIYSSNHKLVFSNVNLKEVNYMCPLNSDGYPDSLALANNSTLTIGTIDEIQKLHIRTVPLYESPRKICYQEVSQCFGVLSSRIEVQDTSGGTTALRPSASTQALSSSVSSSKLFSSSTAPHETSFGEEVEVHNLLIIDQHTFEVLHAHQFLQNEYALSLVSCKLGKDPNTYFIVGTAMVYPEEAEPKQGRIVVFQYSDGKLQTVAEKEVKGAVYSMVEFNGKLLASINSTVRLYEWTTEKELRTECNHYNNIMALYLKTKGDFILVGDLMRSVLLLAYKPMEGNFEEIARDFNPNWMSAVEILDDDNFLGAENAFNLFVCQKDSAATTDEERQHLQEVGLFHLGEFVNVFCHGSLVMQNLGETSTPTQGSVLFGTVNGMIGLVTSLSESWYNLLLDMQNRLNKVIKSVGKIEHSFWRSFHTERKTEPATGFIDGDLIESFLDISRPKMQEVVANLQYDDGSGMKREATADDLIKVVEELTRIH
Structure (SMILES),Ki (CRBN-DDB1) [nM],"Dmax (CDK2; HEK293, HEK293 clonal line) [%]",Dmax (CDK2; HEK293 clonal line) [%]
"CN(C(=O)N1CC(OC(=O)NC2(C)CN(c3cc(F)c(C4CCC(=O)NC4=O)c(F)c3)C2)C1)C1CC1 (stereo not shown) [Compound 12, 1-(cyclopropyl(methyl)carbamoyl)azetidin-3-yl (1-(4-(2,6-dioxopiperidin-3-yl)-3,5-difluorophenyl)-3-methylazetidin-3-yl)carbamate]",≤ 100,50 to 80,
"CC(C)(C)[Si](C)(C)O[C@H]1C[C@H](OC(=O)NC2CN(c3cc(F)c(C4CCC(=O)NC4=O)c(F)c3)C2)C1 (stereo partly shown) [Compound 47, (1r, 3r)-3-((tert-butyldimethylsilyl)oxy)cyclobutyl (1-(4-(2,6-dioxopiperidin-3-yl)-3,5-difluorophenyl)azetidin-3-yl)carbamate]",≤ 100,,> 80
"Cc1ccccc1-c1nnc(NC2CN(c3cc(F)c(C4CCC(=O)NC4=O)c(F)c3)C2)o1 (stereo not shown) [Compound 96, 3-(2,6-difluoro-4-(3-((5-(o-tolyl)-1,3,4-oxadiazol-2-yl)amino)azetidin-1-yl)phenyl)piperidine-2,6-dione]",≤ 100,> 80,
"O=C1CCC(c2c(F)cc(N3CC(NC(=O)OC4CN(C(=O)N5CCC56CCC6)C4)C3)cc2F)C(=O)N1 (stereo not shown) [Compound 33, 1-(1-azaspiro[3.3]heptane-1-carbonyl)azetidin-3-yl (1-(4-(2,6-dioxopiperidin-3-yl)-3,5-difluorophenyl)azetidin-3-yl)carbamate]",≤ 100,50 to 80,
"CC1(C)CCC(COC(=O)NC2CN(c3cc(F)c(C4CCC(=O)NC4=O)c(F)c3)C2)CC1 (stereo not shown) [Compound 53, (4,4-dimethylcyclohexyl)methyl (1-(4-(2,6-dioxopiperidin-3-yl)-3,5-difluorophenyl)azetidin-3-yl)carbamate]",≤ 100,> 80,
"CN(C)C(=O)N1CC[C@@H](OC(=O)NC2CN(c3cc(F)c(C4CCC(=O)NC4=O)c(F)c3)C2)C1 (stereo partly drawn) [Compound 18, (R)-1-(dimethylcarbamoyl)pyrrolidin-3-yl (1-(4-(2,6-dioxopiperidin-3-yl)-3,5-difluorophenyl)azetidin-3-yl)carbamate]",≤ 100,10 to 50,
"C[C@H]1CC[C@H](COC(=O)NC2CN(c3cc(F)c(C4CCC(=O)NC4=O)c(F)c3)C2)CC1 (stereo partly shown) [Compound 52, ((1r, 4r)-4-methylcyclohexyl)methyl (1-(4-(2,6-dioxopiperidin-3-yl)-3,5-difluorophenyl)azetidin-3-yl)carbamate]",≤ 100,> 80,
"Cc1ccc(N(C)C(=O)C23CC(OC(=O)NC4CN(c5cc(F)c(C6CCC(=O)NC6=O)c(F)c5)C4)(C2)C3)c(C)c1 (stereo not shown) [Compound 117, 3-((2,4-dimethylphenyl)(methyl)carbamoyl)bicyclo[1.1.1]pentan-1-yl (1-(4-(2,6-dioxopiperidin-3-yl)-3,5-difluorophenyl)azetidin-3-yl)carbamate]",≤ 100,10 to 50,
